Measurements taken from patent US10226452B2, “Benzoxazolone derivatives as acid ceramidase inhibitors, and their use as medicaments” (FONDAZIONE ISTITUTO ITALIANO DI TECNOLOGIA, priority 2014, dated 2019).

Molecular target: human (hAC) acid ceramidase (Homo sapiens (Human), UniProt Q13510)
Assay: fluorescent-based in vitro assay on human acid ceramidase
Format: biochemical
Conditions: hAC-enriched lysosomal lysate from HEK293 cells; fluorogenic probe 5 μM; pH 4.5
From the text: To evaluate the potency of the compounds towards acid ceramidase, a fluorescence-based in vitro assay previously described in literature (Bedia C et al., ChemBioChem, 2007, 8, 642-648) was implemented and optimized. This assay is based on a “fluorogenic probe” containing a coumarin group and a sphingoid base moiety (see figure below), which is not fluorescent in itself, but upon enzymatic cleavage by acid ceramidase followed by a chemical transformation liberates the fluorescent molecule umbelliferone (7-hydroxychromen-2-one). By quantifying the generation of umbelliferone using a fluorescence plate-reader, the level of enzymatic activity can be measured, whereby IC50 values of compounds that inhibit this activity can be generated.
Lysosomal lysate, enriched with acid ceramidase, was prepared from a cell line stably expressing human acid ceramidase. In the assay, the fluorogenic probe (or substrate) serves as a ceramide-analogue, which is recognized and hydrolyzed at the amide bond by acid ceramidase from the enriched lysate to yield the fatty acid and coumarinic aminodiol. By treating the solution with sodium periodate (NaIO4), the coumarinic aminodiol is subsequently oxidized into an aldehyde intermediate, which undergoes a β-elimination reaction to release the strongly fluorescent umbelliferone.
A lysosomal human acid ceramidase protein preparation was obtained from HEK293 cells stably expressing acid ceramidase suspended in 20 mM Tris HCl (pH 7.5) with 0.32 M sucrose. The cell solution was sonicated and centrifuged at 800×g for 15 min at 4° C. Supernatants were then centrifuged at 12,000×g for 30 min at 4° C. Pellets were re-suspended in PBS pH 7.4 and subjected to two freeze-thaw cycles at −80° C. The suspension was finally centrifuged at 105,000×g for 1 hour at 4° C. and protein concentration was measured in the supernatant with bicinchinonic-acid based protein assay. This human acid ceramidase-enriched preparation allowed us to further optimize the enzymatic assay and to use smaller amounts of lysate (2 μg/well) and substrate (5 μM).
The assay was performed in Optiplate 96-wells black plates, with each reaction well containing a mixture of 25 mM sodium acetate buffer pH 4.5 and a fixed amount of protein (2 μg) in a volume of 85 μL. After 30 mins of pre-incubation with test compounds (diluted 20× from DMSO stock solutions at different concentrations), the fluorogenic probe was added (diluted 20× from EtOH stock solution, final concentration 5 μM). After incubation for 3 hours at 37° C., the reactions were stopped with 50 μL of methanol and 100 μL of a 2.5 mg/mL NalO4 fresh solution in 100 mM Glycine/NaOH pH 10.6. The plate was incubated at 37° C. for 2 hours in the dark and fluorescence intensities were measured at excitation/emission wavelengths of 360/446 nm. Negative control samples consisted of the same incubation mixture in the absence of protein extracts. The IC50 values or percent of inhibition, at the indicated concentration, of selected compounds described in the invention are reported in Table 2.

Sequence of human (hAC) acid ceramidase (Q13510 22-142): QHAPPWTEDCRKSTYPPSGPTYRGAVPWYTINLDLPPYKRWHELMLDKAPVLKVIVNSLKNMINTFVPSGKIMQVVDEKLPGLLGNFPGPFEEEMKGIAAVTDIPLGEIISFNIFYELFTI
Sequence of human (hAC) acid ceramidase (Q13510 143-395): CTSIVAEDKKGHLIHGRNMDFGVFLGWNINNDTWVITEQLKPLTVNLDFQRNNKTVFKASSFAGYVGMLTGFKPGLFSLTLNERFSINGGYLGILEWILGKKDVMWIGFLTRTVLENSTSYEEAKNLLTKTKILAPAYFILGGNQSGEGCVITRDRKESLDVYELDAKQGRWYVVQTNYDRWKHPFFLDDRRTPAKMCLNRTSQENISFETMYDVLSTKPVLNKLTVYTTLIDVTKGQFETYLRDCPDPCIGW

SMILES: O=C(NCCCCc1ccccc1)n1c(=O)oc2cc(Cl)ccc21 [Example 5, 6-Chloro-2-oxo-N-(4-phenylbutyl)-1,3-benzoxazole-3-carboxamide]
- IC50: 33 ± 4 nM

SMILES: O=C(NCCCCc1cccs1)n1c(=O)oc2ccccc21 [Example 44, 2-Oxo-N-[4-(2-thienyl)butyl]-1,3-benzoxazole-3-carboxamide]
- IC50: 99 ± 58 nM

SMILES: O=C(NCCCCc1ccccc1)n1c(=O)oc2cc(F)ccc21 [Example 3, 6-Fluoro-2-oxo-N-(4-phenylbutyl)-1,3-benzoxazole-3-carboxamide]
- IC50: 10 ± 7 nM

SMILES: O=C(NCCCCc1ccccc1)n1c(=O)oc2cc(O)ccc21 [Example 35, 6-Hydroxy-2-oxo-N-(4-phenylbutyl)-1,3-benzoxazole-3-carboxamide]
- IC50: 152 ± 87 nM

SMILES: O=C(NCCCCc1ccccc1)n1c(=O)oc2cc(C(F)(F)F)ccc21 [Example 14, 2-Oxo-N-(4-phenylbutyl)-6-(trifluoromethyl)-1,3-benzoxazole-3-carboxamide]
- IC50: 20 ± 9 nM

SMILES: CCCCCCCNC(=O)n1c(=O)oc2ccccc21 [Example 59, N-Heptyl-2-oxo-1,3-benzoxazole-3-carboxamide]
- IC50: 50 ± 7 nM

SMILES: COc1ccc(CCCCNC(=O)n2c(=O)oc3ccccc32)cc1 [Example 45, N-[4-(4-Methoxyphenyl)butyl]-2-oxo-1,3-benzoxazole-3-carboxamide]
- IC50: 63 ± 22 nM

SMILES: O=C(NCCCCc1ccccc1)n1c(=O)oc2cc(Cl)c(Cl)cc21 [Example 16, 5,6-Dichloro-2-oxo-N-(4-phenylbutyl)-1,3-benzoxazole-3-carboxamide]
- IC50: 18 ± 8 nM

SMILES: O=C(NCCCCc1ccccc1)n1c(=O)oc2ccc(Cl)cc21 [Example 4, 5-Chloro-2-oxo-N-(4-phenylbutyl)-1,3-benzoxazole-3-carboxamide]
- IC50: 9 ± 7 nM

SMILES: Cc1ccc2oc(=O)n(C(=O)NCCCCc3ccccc3)c2c1 [Example 8, 5-Methyl-2-oxo-N-(4-phenylbutyl)-1,3-benzoxazole-3-carboxamide]
- IC50: 117 ± 26 nM

SMILES: O=C(NCCCCc1ccccc1)n1c(=O)oc2ccc(-c3ccccc3)cc21 [Example 20, 2-Oxo-5-phenyl-N-(4-phenylbutyl)-1,3-benzoxazole-3-carboxamide]
- IC50: 22 nM

SMILES: O=C(NCCCCc1ccccc1)n1c(=O)oc2ccc([N+](=O)[O-])cc21 [Example 11, 5-Nitro-2-oxo-N-(4-phenylbutyl)-1,3-benzoxazole-3-carboxamide]
- IC50: 3 ± 2 nM

SMILES: CCC[C@H]1CC[C@H](CNC(=O)n2c(=O)oc3ccccc32)CC1 [Example 40, 2-Oxo-N-[(4-propylcyclohexyl)methyl]-1,3-benzoxazole-3-carboxamide]
- IC50: 135 ± 56 nM

SMILES: O=C(NCCCCc1ccccc1)n1c(=O)oc2cc([N+](=O)[O-])ccc21 [Example 12, 6-Nitro-2-oxo-N-(4-phenylbutyl)-1,3-benzoxazole-3-carboxamide]
- IC50: 3 ± 1 nM

SMILES: O=C(NCCCCc1ccccc1)n1c(=O)oc2ccc(Br)cc21 [Example 6, 5-Bromo-2-oxo-N-(4-phenylbutyl)-1,3-benzoxazole-3-carboxamide]
- IC50: 22 ± 11 nM

SMILES: O=C(NCCCc1cccc(F)c1)n1c(=O)oc2ccccc21 [Example 50, N-[3-(3-Fluorophenyl)propyl]-2-oxo-1,3-benzoxazole-3-carboxamide]
- IC50: 49 nM

SMILES: O=C(NCCCCc1ccccc1)n1c(=O)oc2ccc(C(F)(F)F)cc21 [Example 13, 2-Oxo-N-(4-phenylbutyl)-5-(trifluoromethyl)-1,3-benzoxazole-3-carboxamide]
- IC50: 11 ± 5 nM

SMILES: O=C(NCCCCc1ccccc1)n1c(=O)oc2c(Br)cccc21 [Example 19, 7-Bromo-2-oxo-N-(4-phenylbutyl)-1,3-benzoxazole-3-carboxamide]
- IC50: 18 ± 11 nM

SMILES: O=C(NCCCCc1ccccc1)n1c(=O)oc2cc(-c3ccccc3)ccc21 [Example 23, 2-Oxo-6-phenyl-N-(4-phenylbutyl)-1,3-benzoxazole-3-carboxamide]
- IC50: 84 ± 35 nM

SMILES: O=C(NCCCCCc1ccccc1)n1c(=O)oc2ccccc21 [Example 57, 2-Oxo-N-(5-phenylpentyl)-1,3-benzoxazole-3-carboxamide]
- IC50: 54 ± 12 nM

SMILES: O=C(c1ccc(Cl)cc1)c1ccc2c(c1)oc(=O)n2C(=O)NCCCCc1ccccc1 [Example 38, 6-(4-Chlorobenzoyl)-2-oxo-N-(4-phenylbutyl)-1,3-benzoxazole-3-carboxamide]
- IC50: 14 ± 4 nM

SMILES: O=C(NCCCCc1ccc2ccccc2c1)n1c(=O)oc2ccccc21 [Example 52, N-[4-(2-Naphthyl)butyl]-2-oxo-1,3-benzoxazole-3-carboxamide]
- IC50: 57 nM

SMILES: O=C(NCCCc1ccccc1)n1c(=O)oc2ccccc21 [Example 43, 2-Oxo-N-(3-phenylpropyl)-1,3-benzoxazole-3-carboxamide]
- IC50: 55 ± 6 nM

SMILES: O=C(NCCCCc1ccccc1)n1c(=O)oc2ccccc21 [Example 1, 2-Oxo-N-(4-phenylbutyl)-1,3-benzoxazole-3-carboxamide]
- IC50: 64 ± 7 nM

SMILES: Cc1cccc2c1oc(=O)n2C(=O)NCCCCc1ccccc1 [Example 18, 7-Methyl-2-oxo-N-(4-phenylbutyl)-1,3-benzoxazole-3-carboxamide]
- IC50: 23 ± 5 nM

SMILES: O=C(c1ccccc1)c1ccc2c(c1)oc(=O)n2C(=O)NCCCCc1ccccc1 [Example 37, 6-Benzoyl-2-oxo-N-(4-phenylbutyl)-1,3-benzoxazole-3-carboxamide]
- IC50: 29 ± 1 nM

SMILES: Cc1ccc(CCCCNC(=O)n2c(=O)oc3ccccc32)cc1 [Example 47, 2-Oxo-N-[4-(p-tolyl)butyl]-1,3-benzoxazole-3-carboxamide]
- IC50: 28 nM

SMILES: O=C(NCCCCCCc1ccccc1)n1c(=O)oc2ccccc21 [Example 58, 2-Oxo-N-(6-phenylhexyl)-1,3-benzoxazole-3-carboxamide]
- IC50: 99 ± 58 nM

SMILES: Cc1ccc2c(c1)oc(=O)n2C(=O)NCCCCc1ccccc1 [Example 9, 6-Methyl-2-oxo-N-(4-phenylbutyl)-1,3-benzoxazole-3-carboxamide]
- IC50: 66 ± 9 nM

SMILES: CCC(=O)c1ccc2c(c1)oc(=O)n2C(=O)NCCCCc1ccccc1 [Example 36, 2-Oxo-N-(4-phenylbutyl)-6-propanoyl-1,3-benzoxazole-3-carboxamide]
- IC50: 16 ± 14 nM

SMILES: O=C(NCCCCc1ccccc1)n1c(=O)oc2ccc(F)cc21 [Example 2, 5-Fluoro-2-oxo-N-(4-phenylbutyl)-1,3-benzoxazole-3-carboxamide]
- IC50: 56 ± 12 nM

SMILES: CCCc1ccc(CNC(=O)n2c(=O)oc3ccccc32)cc1 [Example 41, 2-Oxo-N-[(4-propylphenyl)methyl]-1,3-benzoxazole-3-carboxamide]
- IC50: 19 ± 2 nM

SMILES: O=C(NCCCCc1ccc(F)cc1)n1c(=O)oc2ccccc21 [Example 46, N-[4-(4-Fluorophenyl)butyl]-2-oxo-1,3-benzoxazole-3-carboxamide]
- IC50: 75 nM

SMILES: COc1ccc(-c2ccc3c(c2)oc(=O)n3C(=O)NCCCCc2ccccc2)cc1 [Example 24, 6-(4-Methoxyphenyl)-2-oxo-N-(4-phenylbutyl)-1,3-benzoxazole-3-carboxamide]
- IC50: 67 ± 5 nM

SMILES: COc1ccc2c(c1)oc(=O)n2C(=O)NCCCCc1ccccc1 [Example 10, 6-Methoxy-2-oxo-N-(4-phenylbutyl)-1,3-benzoxazole-3-carboxamide]
- IC50: 52 ± 9 nM

SMILES: O=C(NCCCCc1ccccc1)n1c(=O)oc2ccc(-c3ccc(F)cc3)cc21 [Example 22, 5-(4-Fluorophenyl)-2-oxo-N-(4-phenylbutyl)-1,3-benzoxazole-3-carboxamide]
- IC50: 56 ± 14 nM

SMILES: N#Cc1ccc2oc(=O)n(C(=O)NCCCCc3ccccc3)c2c1 [Example 15, 5-Cyano-2-oxo-N-(4-phenylbutyl)-1,3-benzoxazole-3-carboxamide]
- IC50: 11 nM

SMILES: O=C(NCCCCc1ccccc1)n1c(=O)oc2cccc(F)c21 [Example 56, 4-Fluoro-2-oxo-N-(4-phenylbutyl)-1,3-benzoxazole-3-carboxamide]
- IC50: 1 ± 1 nM

SMILES: CCCCCCCCNC(=O)n1c(=O)oc2ccccc21 [Example 42, N-Octyl-2-oxo-1,3-benzoxazole-3-carboxamide]
- IC50: 34 ± 14 nM

SMILES: O=C(NCCCCc1ccccc1)n1c(=O)oc2c(-c3ccccc3)cccc21 [Example 27, 2-Oxo-7-phenyl-N-(4-phenylbutyl)-1,3-benzoxazole-3-carboxamide]
- IC50: 91 ± 10 nM

SMILES: COc1ccc(-c2ccc3oc(=O)n(C(=O)NCCCCc4ccccc4)c3c2)cc1 [Example 21, 5-(4-Methoxyphenyl)-2-oxo-N-(4-phenylbutyl)-1,3-benzoxazole-3-carboxamide]
- IC50: 68 nM
